From patent US10987359B2, “Oxadiazepinone derivatives and methods of treating hepatitis B infections” (priority 2016, dated 2021)
Like-named read-outs stand apart in the source and are kept apart here.

Tested on: HBV
Assay: HBV replication inhibition assay (BDNA assay) in HepG2.2.15 cells
Format: cell-based
Details: HepG2.2.15 cells, read-out: DNA EC50
How it was run: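 Supernatant encapsidated HBV DNA was measured by bDNA after DNase digestion and proteinase K release. Stably HBV-integrated HepG2.2.15 cells had two 3-day compound exposures (0.5% DMSO). Signals were background-subtracted and normalized to DMSO wells, and EC50 was obtained by four-parameter fit.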

[1] = HBV replication assay (BDNA assay)
[2] = Hepatitis B virus, HepG2.2.15, HBV replication assay (BDNA assay)

| SMILES | EC50 [1] [nM] | EC50 [2] [nM] |
| --- | --- | --- |
| C[C@@H]1Cc2nn3c(c2CN1C(=O)Nc1ccc(F)c(C#N)c1)C(=O)N(C)OC(C(=O)N(C)CC(F)F)C3 (stereo in doubt) [Compound 155_D1, (4S*,9R)—N10-(3-cyano-4-fluorophenyl)-N4-(2,2-difluoroethyl)-N4,2,9-trimethyl-1-oxo-1,4,5,8,9,11-hexahydropyrido[4′,3′:3,4]pyrazolo[5,1-d][1,2,5]oxadiazepine-4,10(2H)-dicarboxamide] | 500 to 1000 |  |
| C[C@@H]1Cc2nn3c(c2CN1C(=O)Nc1ccc(F)c(C#N)c1)C(=O)N(C)OC(C(=O)N(C)CC(F)F)C3 (stereo in doubt) [Compound 155_D2, (4R*,9R)—N10-(3-cyano-4-fluorophenyl)-N4-(2,2-difluoroethyl)-N4,2,9-trimethyl-1-oxo-1,4,5,8,9,11-hexahydropyrido[4′,3′:3,4]pyrazolo[5,1-d][1,2,5]oxadiazepine-4,10(2H)-dicarboxamide] | 1 to 100 |  |
| CNC(=O)C1Cn2nc3c(c2C(=O)N(C)O1)CN(C(=O)Nc1ccc(F)c(C#N)c1F)[C@H](C)C3 (stereo in doubt) [Compound 156_D2, (4R*,9R)—N10-(3-cyano-2,4-difluorophenyl)-N4,2,9-trimethyl-1-oxo-1,4,5,8,9,11-hexahydropyrido[4′,3′:3,4]pyrazolo[5,1-d][1,2,5]oxadiazepine-4,10(2H)-dicarboxamide] |  | 1 to 100 |
| C[C@@H]1Cc2nn3c(c2CN1C(=O)Nc1ccc(F)c(C#N)c1)C(=O)N(C)OC(CNCC(F)F)C3 (stereo in doubt) [Compound 183_D1, (4S*,9R)—N-(3-cyano-4-fluorophenyl)-4-(((2,2-difluoroethyl)amino)methyl)-2,9-dimethyl-1-oxo-1,4,5,8,9,11-hexahydropyrido[4′,3′:3,4]pyrazolo[5,1-d][1,2,5]oxadiazepine-10(2H)-carboxamide] |  | 1 to 100 |
| C[C@@H]1Cc2nn3c(c2CN1C(=O)Nc1ccc(F)c(C#N)c1)C(=O)N(C)OC(CNCC(F)F)C3 (stereo in doubt) [Compound 183_D2, (4R*,9R)—N-(3-cyano-4-fluorophenyl)-4-(((2,2-difluoroethyl)amino)methyl)-2,9-dimethyl-1-oxo-1,4,5,8,9,11-hexahydropyrido[4′,3′:3,4]pyrazolo[5,1-d][1,2,5]oxadiazepine-10(2H)-carboxamide] | 1 to 100 |  |
| C[C@@H]1Cc2nn3c(c2CN1C(=O)Nc1ccc(F)c(Br)c1)C(=O)N(C)OC(CNCC(F)F)C3 (stereo in doubt) [Compound 184_D1, (4S*,9R)—N-(3-bromo-4-fluorophenyl)-4-(((2,2-difluoroethyl)amino)methyl)-2,9-dimethyl-1-oxo-1,4,5,8,9,11-hexahydropyrido[4′,3′:3,4]pyrazolo[5,1-d][1,2,5]oxadiazepine-10(2H)-carboxamide] |  | 1 to 100 |
| C[C@@H]1Cc2nn3c(c2CN1C(=O)Nc1ccc(F)c(Br)c1)C(=O)N(C)OC(CNCC(F)F)C3 (stereo in doubt) [Compound 184_D2, (4R*,9R)—N-(3-bromo-4-fluorophenyl)-4-(((2,2-difluoroethyl)amino)methyl)-2,9-dimethyl-1-oxo-1,4,5,8,9,11-hexahydropyrido[4′,3′:3,4]pyrazolo[5,1-d][1,2,5]oxadiazepine-10(2H)-carboxamide] | 1 to 100 |  |
| Cc1cc(NC(=O)N2Cc3c(nn4c3C(=O)N(C)OC(CNCC(F)F)C4)C[C@H]2C)ccc1F (stereo in doubt) [Compound 185_D1, (4S*,9R)-4-(((2,2-difluoroethyl)amino)methyl)-N-(4-fluoro-3-methylphenyl)-2,9-dimethyl-1-oxo-1,4,5,8,9,11-hexahydropyrido[4′,3′:3,4]pyrazolo[5,1-d][1,2,5]oxadiazepine-10(2H)-carboxamide] |  | 1 to 100 |
| Cc1cc(NC(=O)N2Cc3c(nn4c3C(=O)N(C)OC(CNCC(F)F)C4)C[C@H]2C)ccc1F (stereo in doubt) [Compound 185_D2, (4R*,9R)-4-(((2,2-difluoroethyl)amino)methyl)-N-(4-fluoro-3-methylphenyl)-2,9-dimethyl-1-oxo-1,4,5,8,9,11-hexahydropyrido[4′,3′:3,4]pyrazolo[5,1-d][1,2,5]oxadiazepine-10(2H)-carboxamide] | 1 to 100 |  |
